Test results published in patent US20170159101A1, “DRUG-RESISTANT P97 ATPASE MUTATIONS” (Cleave Biosciences, Inc., priority 2014, published 2017).

Tests used:
[1] = tested on: Hct116 resistant cell line clone #1 (p97 D649N); experiment: GI50 fold-change, resistant clone #1 vs parental; assay type: cell-based, human; conditions: Clone #1, Hct116, resistance generated with compound 2, G1945A / D649N; 72 hrs
Description: (§1) Dose titration of test compounds were conducted in Hct116, DLD-1, or LoVo cell lines. In brief, cells were plated in 384-well plates and a selected candidate drug compound was added in a 10-point 2-fold serial dilution.

[2] = tested on: Hct116 resistant cell line clone #2 (p97 V474A); experiment: GI50 fold-change, resistant clone #2 vs parental; assay type: cell-based, human; conditions: Clone #2, Hct116, resistance generated with compound 2, T1421C / V474A; 72 hrs
Description: as §1

[3] = tested on: Hct116 resistant cell line clone #6 (p97 A528T); experiment: GI50 fold-change, resistant clone #6 vs parental; assay type: cell-based, human; conditions: Clone #6, Hct116, resistance generated with compound 2, G1582 / A528T; 72 hrs
Description: as §1

[4] = tested on: Hct116 resistant cell line clone #22 (p97 N660D); experiment: GI50 fold-change, resistant clone #22 vs parental; assay type: cell-based, human; conditions: Clone #22, Hct116, resistance generated with compound 4, A1978G / N660D; 72 hrs
Description: as §1

[5] = tested on: Hct116 resistant cell line clone #27 (p97 T688A); experiment: GI50 fold-change, resistant clone #27 vs parental; assay type: cell-based, human; conditions: Clone #27, Hct116, resistance generated with compound 4, A2062G / T688A; 72 hrs
Description: as §1

[6] = tested on: Hct116 resistant cell line clone #29 (p97 N660K); experiment: GI50 fold-change, resistant clone #29 vs parental; assay type: cell-based, human; conditions: Clone #29, Hct116, resistance generated with compound 4, C1980A / N660K; 72 hrs
Description: as §1

[7] = tested on: Hct116 resistant cell line clone #33 (p97 P472L); experiment: GI50 fold-change, resistant clone #33 vs parental; assay type: cell-based, human; conditions: Clone #33, Hct116, resistance generated with compound 4, C1415T / P472L; 72 hrs
Description: as §1

[8] = tested on: Hct116 resistant cell line clone #42 (p97 P472A); experiment: GI50 fold-change, resistant clone #42 vs parental; assay type: cell-based, human; conditions: Clone #42, Hct116, resistance generated with compound 4, C1414G / P472A; 72 hrs
Description: as §1

[9] = tested on: Hct116 resistant cell line clone #45 (p97 F539I); experiment: GI50 fold-change, resistant clone #45 vs parental; assay type: cell-based, human; conditions: Clone #45, Hct116, resistance generated with compound 4, T1615A / F539I; 72 hrs
Description: as §1

[10] = tested on: Hct116 resistant cell line clone #47 (p97 E498D); experiment: GI50 fold-change, resistant clone #47 vs parental; assay type: cell-based, human; conditions: Clone #47, Hct116, resistance generated with compound 4, G1494T / E498D; 72 hrs
Description: as §1

[11] = tested on: DLD-1 resistant cell line clone #64 (p97 N660N/S); experiment: GI50 fold-change, resistant clone #64 vs parental; assay type: cell-based, human; conditions: Clone #64, DLD-1, resistance generated with compound 4, A1979G/A / N660N/S; 72 hrs
Description: as §1

[12] = tested on: DLD-1 resistant cell line clone #82 (p97 A569A/T); experiment: GI50 fold-change, resistant clone #82 vs parental; assay type: cell-based, human; conditions: Clone #82, DLD-1, resistance generated with compound 4, G1705G/A / A569A/T; 72 hrs
Description: as §1

[13] = tested on: DLD-1 resistant cell line clone #83 (p97 N660N/D); experiment: GI50 fold-change, resistant clone #83 vs parental; assay type: cell-based, human; conditions: Clone #83, DLD-1, resistance generated with compound 4, A1978G/A / N660N/D; 72 hrs
Description: as §1

[14] = tested on: DLD-1 resistant cell line clone #87 (p97 S541P); experiment: GI50 fold-change, resistant clone #87 vs parental; assay type: cell-based, human; conditions: Clone #87, DLD-1, resistance generated with compound 4, T1621T/C / S541P; 72 hrs
Description: as §1

[15] = tested on: Hct116 resistant cell line clone #90 (p97 Q473P); experiment: GI50 fold-change, resistant clone #90 vs parental; assay type: cell-based, human; conditions: Clone #90, Hct116, resistance generated with compound 4, A1418C / Q473P; 72 hrs
Description: as §1

[16] = tested on: Hct116 resistant cell line clone #137 (p97 T475I); experiment: GI50 fold-change, resistant clone #137 vs parental; assay type: cell-based, human; conditions: Clone #137, Hct116, resistance generated with compound 4, C1424T / T475I; 72 hrs
Description: as §1

[17] = tested on: Hct116 resistant cell line clone #152 (p97 T688I); experiment: GI50 fold-change, resistant clone #152 vs parental; assay type: cell-based, human; conditions: Clone #152, Hct116, resistance generated with compound 4, C2063T / T688I; 72 hrs
Description: (§2) Dose titration of test compounds were conducted in Hct116, DLD-1, or LoVo cell lines. In brief, cells were plated in 384-well plates and a selected candidate drug compound was added in a 10-point 2-fold serial dilution. […] Hct116 cells were plated at 50,000 cells per 15 cm dish and treated with GI50-GI90 doses of test compound for 2-4 weeks until individual colonies of cells were visible on the plate.

[18] = tested on: Hct116 resistant cell line clone #180 (p97 A569T); experiment: GI50 fold-change, resistant clone #180 vs parental; assay type: cell-based, human; conditions: Clone #180, Hct116, resistance generated with compound 4, G1705A / A569T; 72 hrs
Description: as §1

[19] = tested on: Hct116 resistant cell line clone #207 (p97 V485D); experiment: GI50 fold-change, resistant clone #207 vs parental; assay type: cell-based, human; conditions: Clone #207, Hct116, resistance generated with compound 4, T1454A / V485D; 72 hrs
Description: as §1

[20] = tested on: LoVo resistant cell line clone #221 (p97 V474V/A); experiment: GI50 fold-change, resistant clone #221 vs parental; assay type: cell-based, human; conditions: Clone #221, LoVo, resistance generated with compound 4, T1421C/T / V474V/A; 72 hrs
Description: as §2

[21] = tested on: Hct116 resistant cell line clone #3 (p97 G481A); conditions: Clone #3, Hct116, resistance generated with compound 2, G1442C / G481A; 72 hrs
[22] = tested on: Hct116 resistant cell line clone #7 (p97 A659T); conditions: Clone #7, Hct116, resistance generated with compound 3, G1975A / A659T; 72 hrs
[23] = tested on: Hct116 resistant cell line clone #11 (p97 E470D); conditions: Clone #11, Hct116, resistance generated with compound 3, G1410T / E470D; 72 hrs

SMILES | Fold Change in GI50 Compared to Parental Cell Line [1] | Fold Change in GI50 Compared to Parental Cell Line [2] | Fold Change in GI50 Compared to Parental Cell Line [3] | Fold Change in GI50 Compared to Parental Cell Line [4] | Fold Change in GI50 Compared to Parental Cell Line [5] | Fold Change in GI50 Compared to Parental Cell Line [6] | Fold Change in GI50 Compared to Parental Cell Line [7] | Fold Change in GI50 Compared to Parental Cell Line [8] | Fold Change in GI50 Compared to Parental Cell Line [9] | Fold Change in GI50 Compared to Parental Cell Line [10] | Fold Change in GI50 Compared to Parental Cell Line [11] | Fold Change in GI50 Compared to Parental Cell Line [12] | Fold Change in GI50 Compared to Parental Cell Line [13] | Fold Change in GI50 Compared to Parental Cell Line [14] | Fold Change in GI50 Compared to Parental Cell Line [15] | Fold Change in GI50 Compared to Parental Cell Line [16] | Fold Change in GI50 Compared to Parental Cell Line [17] | Fold Change in GI50 Compared to Parental Cell Line [18] | Fold Change in GI50 Compared to Parental Cell Line [19] | Fold Change in GI50 Compared to Parental Cell Line [20] | also measured
CC(C)C[C@H](NC(=O)[C@H](Cc1ccccc1)NC(=O)c1cnccn1)B(O)O [Compound 1, [(1R)-3-methyl-1-[(2S)-3-phenyl-2-(pyrazin-2-ylformamido)propanamido]butyl]boronic acid, reference compound] | 1.0 fold | 1.0 fold | 1.1 fold | 1.0 fold | 1.1 fold | 0.9 fold | 0.9 fold | 1.0 fold | 0.8 fold | 0.8 fold | 0.7 fold | 1.5 fold | 1.2 fold | 1.1 fold | 1.2 fold | 0.8 fold | 1.0 fold | 0.8 fold | 1.0 fold | 0.9 fold | Fold Change in GI50 Compared to Parental Cell Line [21]: 0.9 fold; Fold Change in GI50 Compared to Parental Cell Line [22]: 0.9 fold; Fold Change in GI50 Compared to Parental Cell Line [23]: 1.0 fold
Cc1cc2c(C(N)=O)cccc2n1-c1nc2c(c(NCc3ccccc3)n1)COCC2 [Compound 4, 1-[4-(benzylamino)-5H,7H,8H-pyrano[4,3-d]pyrimidin-2-yl]-2-methyl-1H-indole-4-carboxamide] | 20.0 fold | 8.7 fold | 11.8 fold | 3.1 fold | 50.3 fold | 16.5 fold | 11.6 fold | 6.1 fold | 6.4 fold | 2.4 fold | 1.2 fold | 6.6 fold | 2.7 fold | 39.8 fold | 3.0 fold | 4.4 fold | 60.7 fold | 5.9 fold | 17.0 fold | 2.2 fold | Fold Change in GI50 Compared to Parental Cell Line [21]: 19.4 fold; Fold Change in GI50 Compared to Parental Cell Line [22]: 3.8 fold; Fold Change in GI50 Compared to Parental Cell Line [23]: 5.4 fold
